Experimental data reported in patent US6673549B1, “Genes expressed in C3A liver cell cultures treated with steroids” (Incyte Corporation, priority 2000, dated 2004).

Assays:
human C3A liver cells = assay: Microarray differential gene expression in human C3A liver cell cultures treated with steroids; type: cell-based
Text: Incyte clones represent template sequences derived from the LWESEQ GOLD assembled human sequence database (Incyte Genomics). In cases where more than one clone was available for a particular template, the 5′-most clone in the template was used on the microarray. The HUMAN GENOME GEM series 1-4 microarrays (Incyte Genomics) contain 28,626 array elements which represent 10,068 annotated clusters and 18,558 unannotated clusters. For the UNIGEM series microarrays (Incyte Genomics), Incyte clones were mapped to non-redundant Unigene clusters (Unigene database (build 46), NCBI; Shuler (1997) J Mol Med 75:694-698), and the 5′ clone with the strongest BLAST alignment (at least 90% identity and 100 bp overlap) was chosen, verified, and used in the construction of the microarray. The UNIGEM V microarray (Incyte Genomics) contains 7075 array elements which represent 4610 annotated genes and 2,184 unannotated clusters.
To construct microarrays, cDNAs were amplified from bacterial cells using primers complementary to vector sequences flanking the cDNA insert. […] Amplified cDNAs were then purified using […]-400 columns (APB). Purified cDNAs were immobilized on polymer-coated glass slides. Glass microscope slides (Corning, Corning N.Y.) were cleaned by ultrasound in 0.1% SDS and acetone, with extensive distilled water washes between and after treatments. Glass slides were etched in 4% hydrofluoric acid (VWR Scientific Products, West Chester Pa.), washed thoroughly in distilled water, and coated with 0.05% aminopropyl silane (Sigma Aldrich) in 95% ethanol. Coated slides were cured in a 110° C. oven. cDNAs were applied to the coated glass substrate using a procedure described in U.S. Pat. No. 5,807,522. One microliter of the cDNA at an average concentration of 100 ng/μl was loaded into the open capillary printing element by a high-speed robotic apparatus which then deposited about 5 nl of cDNA per slide.
Microarrays were UV-crosslinked using a […] UV-crosslinker (Stratagene), and then washed at room temperature once in 0.2% SDS and three times in distilled water. Non-specific binding sites were blocked by incubation of microarrays in 0.2% casein in phosphate buffered saline (Tropix, Bedford Mich.) for 30 minutes at 60° C. followed by washes in 0.2% SDS and distilled water as before.
In all cases, mRNA from untreated early confluent C3A cells were prepared in parallel as described below.
Cells were harvested and lysed in 1 ml of TRIZOL reagent (5×10^6 cells/ml; Life Technologies). Lysates were vortexed thoroughly, incubated at room temperature for 2-3 minutes, and extracted with 0.5 ml chloroform. The extract was mixed, incubated at room temperature for 5 minutes, and centrifuged at 15,000 rpm for 15 minutes at 4° C. The aqueous layer was collected, and an equal volume of isopropanol was added. Samples were mixed, incubated at room temperature for 10 minutes, and centrifuged at 15,000 rpm for 20 minutes at 4° C. The supernatant was removed, and the RNA pellet was washed with 1 ml of 70% ethanol, centrifuged at 15,000 rpm at 4° C., and resuspended in RNAse-free water. The concentration of the RNA was determined by measuring the optical density at 260 nm.
Poly(A) RNA was prepared using an OLIGOTEX mRNA kit (Qiagen) with the following modifications: OLIGOTEX beads were washed in tubes instead of on spin columns, resuspended in elution buffer, and then loaded onto spin columns to recover mRNA. To obtain maximum yield, the mRNA was eluted twice.
Each poly(A) RNA sample was reverse transcribed using MMLV reverse-transcriptase, 0.05 pg/μl oligo-d(T) primer (21mer), 1× first strand buffer, 0.03 units/ul RNAse inhibitor, 500 uM dATP, 500 uM dGTP, 500 uM dTTP, 40 uM dCTP, and 40 uM either dCTP-Cy3 or dCTP-Cy5 (APB).

[1] = intranasal; cited from earlier work

C[C@H]1C[C@H]2[C@@H]3CCC4=CC(=O)C=C[C@]4(C)[C@@]3(Cl)[C@@H](O)C[C@]2(C)[C@@]1(O)C(=O)CO [beclomethasone]
Ave DE [log2] (C3A treated with steroid) (human C3A liver cells; Clone ID 400654): 1.06 log2
Ave DE [log2] (C3A treated with steroid) (human C3A liver cells; Clone ID 517374): 0.40 log2
Ave DE [log2] (C3A treated with steroid) (human C3A liver cells; Clone ID 615776): 1.01 log2
Ave DE [log2] (C3A treated with steroid) (human C3A liver cells; Clone ID 654246): −0.95 log2
Ave DE [log2] (C3A treated with steroid) (human C3A liver cells; Clone ID 668460): 1.23 log2
Ave DE [log2] (C3A treated with steroid) (human C3A liver cells; Clone ID 963331): −1.01 log2
Ave DE [log2] (C3A treated with steroid) (human C3A liver cells; Clone ID 1275616): 0.94 log2
Ave DE [log2] (C3A treated with steroid) (human C3A liver cells; Clone ID 1323616): 1.09 log2
Ave DE [log2] (C3A treated with steroid) (human C3A liver cells; Clone ID 1329625): 0.35 log2
Ave DE [log2] (C3A treated with steroid) (human C3A liver cells; Clone ID 1573840): 0.97 log2
Ave DE [log2] (C3A treated with steroid) (human C3A liver cells; Clone ID 1604437): 0.47 log2
Ave DE [log2] (C3A treated with steroid) (human C3A liver cells; Clone ID 1662870): −0.76 log2
Ave DE [log2] (C3A treated with steroid) (human C3A liver cells; Clone ID 1697719): −0.69 log2
Ave DE [log2] (C3A treated with steroid) (human C3A liver cells; Clone ID 1723834): 0.47 log2
Ave DE [log2] (C3A treated with steroid) (human C3A liver cells; Clone ID 1857044): 0.61 log2
Ave DE [log2] (C3A treated with steroid) (human C3A liver cells; Clone ID 1876829): −1.00 log2
Ave DE [log2] (C3A treated with steroid) (human C3A liver cells; Clone ID 1951845): 1.01 log2
Ave DE [log2] (C3A treated with steroid) (human C3A liver cells; Clone ID 1995520): 0.82 log2
Ave DE [log2] (C3A treated with steroid) (human C3A liver cells; Clone ID 2046717): 0.98 log2
Ave DE [log2] (C3A treated with steroid) (human C3A liver cells; Clone ID 2086783): −0.88 log2
Ave DE [log2] (C3A treated with steroid) (human C3A liver cells; Clone ID 2095329): −0.99 log2
Ave DE [log2] (C3A treated with steroid) (human C3A liver cells; Clone ID 2285181): −0.88 log2
Ave DE [log2] (C3A treated with steroid) (human C3A liver cells; Clone ID 2287703): −0.99 log2
Ave DE [log2] (C3A treated with steroid) (human C3A liver cells; Clone ID 2287724): −1.05 log2
Ave DE [log2] (C3A treated with steroid) (human C3A liver cells; Clone ID 2294968): −0.73 log2
Ave DE [log2] (C3A treated with steroid) (human C3A liver cells; Clone ID 2372040): −1.05 log2
Ave DE [log2] (C3A treated with steroid) (human C3A liver cells; Clone ID 2430165): 1.04 log2
Ave DE [log2] (C3A treated with steroid) (human C3A liver cells; Clone ID 2506425): 0.88 log2
Ave DE [log2] (C3A treated with steroid) (human C3A liver cells; Clone ID 2636759): 0.81 log2
Ave DE [log2] (C3A treated with steroid) (human C3A liver cells; Clone ID 2695371): 0.51 log2
Ave DE [log2] (C3A treated with steroid) (human C3A liver cells; Clone ID 2947188): −1.02 log2
Ave DE [log2] (C3A treated with steroid) (human C3A liver cells; Clone ID 3047143): 1.10 log2
Ave DE [log2] (C3A treated with steroid) (human C3A liver cells; Clone ID 3057272): 0.83 log2
Ave DE [log2] (C3A treated with steroid) (human C3A liver cells; Clone ID 3528232): 0.38 log2
Ave DE [log2] (C3A treated with steroid) (human C3A liver cells; Clone ID 3687607): 1.03 log2
Ave DE [log2] (C3A treated with steroid) (human C3A liver cells; Clone ID 3960194): 1.00 log2
Ave DE [log2] (C3A treated with steroid) (human C3A liver cells; Clone ID 3973687): 1.23 log2
Ave DE [log2] (C3A treated with steroid) (human C3A liver cells; Clone ID 3973887): −0.91 log2
Ave DE [log2] (C3A treated with steroid) (human C3A liver cells; Clone ID 4087621): 0.89 log2
Ave DE [log2] (C3A treated with steroid) (human C3A liver cells; Clone ID 4215034): 1.13 log2
Ave DE [log2] (C3A treated with steroid) (human C3A liver cells; Clone ID 4253663): −0.70 log2
Ave DE [log2] (C3A treated with steroid) (human C3A liver cells; Clone ID 4284270): −0.70 log2
Ave DE [log2] (C3A treated with steroid) (human C3A liver cells; Clone ID 4855265): 1.00 log2
Ave DE [log2] (C3A treated with steroid) (human C3A liver cells; Clone ID 4863677): 1.09 log2
Ave DE [log2] (C3A treated with steroid) (human C3A liver cells; Clone ID 4894508): −0.93 log2
Ave DE [log2] (C3A treated with steroid) (human C3A liver cells; Clone ID 5091002): −1.13 log2
anti-inflammatory and vasoconstrictive effects relative to hydrocortisone [1]: 5000 times greater
